According to US20120220581A1, “IMIDAZO[1,2-b]PYRIDAZINE DERIVATIVES AND THEIR USE AS PDE10 INHIBITORS” (Janssen-Cilag, S.A., priority 2009, published 2012):
Where two headings read alike, the source gives them in different places.

How the values were obtained:
[1] = target: other members of the PDE family (Homo sapiens, UniProt O76083); test: In vitro PDE selectivity assay (SPA), other members of the PDE family (protocols in Table A); assay type: biochemical; conditions: hPDE9A; read-out: PDE 9A (expressed as pIC50) (converted)
Method in brief: (§1)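 Inhibition of each PDE isoform was measured by scintillation proximity assay with ³H-cyclic nucleotide substrate, using incubation buffer, substrate concentration, incubation time and stop solution adapted per isoform. Compounds were tested in dose-response against 1% DMSO controls and enzyme-free blanks. IC50 came from a least-squares fit of blank-subtracted % of control versus concentration.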

[2] = target: other members of the PDE family (Homo sapiens, UniProt O00408); test: as above; assay type: biochemical; conditions: hPDE2A; read-out: PDE 2A (expressed as pIC50) (converted)
Method in brief: as §1

[3] = target: other members of the PDE family (Homo sapiens, UniProt Q9HCR9); test: as above; assay type: biochemical; conditions: hPDE11A4; read-out: PDE 11A4 (expressed as pIC50) (converted)
Method in brief: as §1

[4] = target: other members of the PDE family (Homo sapiens, UniProt Q13946); test: as above; assay type: biochemical; conditions: hPDE7A1; read-out: PDE 7A (expressed as pIC50) (converted)
Method in brief: as §1

[5] = target: other members of the PDE family (Homo sapiens, UniProt Q14432); test: as above; assay type: biochemical; conditions: hPDE3A; read-out: PDE 3A (expressed as pIC50) (converted)
Method in brief: as §1

[6] = target: PDE5A3 (Homo sapiens, UniProt O76074); test: In vitro PDE selectivity assay (SPA), PDE5A3; assay type: biochemical; conditions: hPDE5A3; read-out: PDE 5A3 (expressed as pIC50) (converted)
Experimental: (§2) Rat recombinant PDE10A (rPDE10A2) was expressed in Sf9 cells using a recombinant rPDE10A baculovirus construct. Cells were harvested after 48 h of infection and the rPDE10A protein was purified by metal chelate chromatography on Ni-sepharose 6FF. Tested compounds were dissolved and diluted in 100% DMSO to a concentration 100 fold of the final concentration in the assay. Compound dilutions (0.4 μl) were added in 384 well plates to 20 μl of incubation buffer (50 mM Tris pH 7.8, 8.3 mM MgCl2, 1.7 mM EGTA). 10 μl of rPDE10A enzyme in incubation buffer was added and the reaction was started by addition of 10 μl substrate to a final concentration of 60 nM cAMP and 0.008 μCi ^3H-cAMP. The reaction was incubated for 60 minutes at room temperature. After incubation, the reaction was stopped with 20 μl of stop solution consisting of 17.8 mg/ml PDE SPA (scintillation proximity assay) beads. After sedimentation of the beads during 30 minutes the radioactivity was measured in a Perkin Elmer Topcount scintillation counter and results were expressed as cpm. For blanc values the enzyme was omitted from the reaction and replaced by incubation buffer. Control values were obtained by addition of a final concentration of 1% DMSO instead of compound. The same assay principle is applied for the measurement of the affinity of the compound for other members of the PDE family with appropriate modifications in incubation buffer, substrate concentration, incubation time and stop solution. An overview of the different protocols is presented in table A. A best fit curve is fitted by a minimum sum of squares method to the plot of % of control value substracted with blanc value versus compound concentration and the half maximal inhibitory concentration (IC50) value is derived from this curve.
(§3) The compounds of the invention are generally selective for PDE10 compared to other PDEs and there are a few that also have affinity for PDE1B1, 4D3 and 5A3.

[7] = tested on: apomorphine-induced stereotypy in rats; test: Apomorphine-induced stereotypy in rats (APO); assay type: in vivo; conditions: Rattus norvegicus; dose at which 50% of the tested animals show the effect; ≧: active in 30% of the animals at the indicated dose; ≦: active in 60%
Experimental: Apomorphine (1.0 mg/kg, i.v.)-induced stereotypy (compulsive sniffing, licking, chewing) was scored every 5 min over the first hour after injection of apomorphine, following a 1 hour interval pre-treatment with the test compound. The score system was: (3) pronounced, (2) moderate, (1) slight, and (0) absent.

[8] = target: PDE4D3 (Homo sapiens, UniProt Q08499); test: In vitro PDE selectivity assay (SPA), PDE4D3; assay type: biochemical; conditions: hPDE4D3; read-out: PDE 4D3 (expressed as pIC50) (converted)
Experimental: as §2, §3

[9] = target: T1, PDE10 (Rattus norvegicus, UniProt Q9QYJ6); test: PDE10 occupancy ([3H]-MP-10, striatum); assay type: in vivo; conditions: for ED50 / receptor occupancy at 10 mg/kg: rat, sc; for ED50: dose response, subcutaneous administration, read-out: PDE10 in vivo occupancy ED50 sc; for receptor occupancy at 10 mg/kg: single dose 10 mg/kg, subcutaneous, read-out: SD sc % occupancy at 10 mg/kg
T1 construct: from tissue; host or cells: rat brain sections, striatum (in vivo dosing, ex vivo autoradiography)
T1 sequence (Q9QYJ6 1-794): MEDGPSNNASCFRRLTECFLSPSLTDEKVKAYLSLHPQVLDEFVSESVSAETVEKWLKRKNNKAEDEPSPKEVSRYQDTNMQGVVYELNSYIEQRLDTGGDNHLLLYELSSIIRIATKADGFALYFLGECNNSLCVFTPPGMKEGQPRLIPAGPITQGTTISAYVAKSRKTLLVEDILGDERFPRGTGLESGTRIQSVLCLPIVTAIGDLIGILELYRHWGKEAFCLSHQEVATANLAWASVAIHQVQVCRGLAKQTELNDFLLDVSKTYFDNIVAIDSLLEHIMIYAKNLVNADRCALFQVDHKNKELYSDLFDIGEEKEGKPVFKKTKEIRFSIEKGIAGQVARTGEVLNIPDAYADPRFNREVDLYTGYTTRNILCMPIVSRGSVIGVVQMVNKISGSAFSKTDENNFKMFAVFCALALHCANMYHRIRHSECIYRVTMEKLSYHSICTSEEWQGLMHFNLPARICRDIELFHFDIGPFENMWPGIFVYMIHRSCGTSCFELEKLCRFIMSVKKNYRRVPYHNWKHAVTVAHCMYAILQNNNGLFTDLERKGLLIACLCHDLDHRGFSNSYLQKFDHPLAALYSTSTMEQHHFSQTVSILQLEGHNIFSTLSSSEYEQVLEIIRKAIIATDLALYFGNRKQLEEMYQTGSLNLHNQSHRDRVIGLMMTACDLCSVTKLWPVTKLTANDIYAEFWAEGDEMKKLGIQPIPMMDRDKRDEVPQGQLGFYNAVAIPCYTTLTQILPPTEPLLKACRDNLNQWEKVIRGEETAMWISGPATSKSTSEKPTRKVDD
Method in brief: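 Male Wistar rats (200 g) dosed s.c. or p.o.; occupancy measured 1 h post-dose. [^3H]-MP-10 (10 μCi/animal) given i.v. 30 min before sacrifice.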

[10] = target: T2, Rat recombinant PDE10A (rPDE10A2) (Rattus norvegicus, UniProt Q9QYJ6); test: In vitro assay PDE10A (SPA, 3H-cAMP); assay type: biochemical
T2 construct: inferred from the Ni metal chelate purification; made in house; host or cells: Sf9 insect cells (baculovirus)
T2 sequence (Q9QYJ6 1-794): T1 sequence (Q9QYJ6 1-794)
Method in brief: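 Scintillation proximity read-out (cpm) of 3H-cAMP hydrolysis after 60 min at room temperature, with enzyme-free blanks and 1% DMSO controls. Enzyme was Sf9-expressed, Ni-sepharose-purified rat rPDE10A2; substrate 60 nM cAMP with tracer, buffer Tris pH 7.8 containing MgCl2 and EGTA.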

[11] = Table 4 in vitro selectivity, read-out: PDE 10A2 (expressed as pIC50) (converted)
[12] = pIC50 corresponds to the −log IC50 expressed in mol/L, read-out: PDE10A2 pIC50 (converted)

Sequence of other members of the PDE family (Homo sapiens, UniProt Q13946) (Q13946 whole entry): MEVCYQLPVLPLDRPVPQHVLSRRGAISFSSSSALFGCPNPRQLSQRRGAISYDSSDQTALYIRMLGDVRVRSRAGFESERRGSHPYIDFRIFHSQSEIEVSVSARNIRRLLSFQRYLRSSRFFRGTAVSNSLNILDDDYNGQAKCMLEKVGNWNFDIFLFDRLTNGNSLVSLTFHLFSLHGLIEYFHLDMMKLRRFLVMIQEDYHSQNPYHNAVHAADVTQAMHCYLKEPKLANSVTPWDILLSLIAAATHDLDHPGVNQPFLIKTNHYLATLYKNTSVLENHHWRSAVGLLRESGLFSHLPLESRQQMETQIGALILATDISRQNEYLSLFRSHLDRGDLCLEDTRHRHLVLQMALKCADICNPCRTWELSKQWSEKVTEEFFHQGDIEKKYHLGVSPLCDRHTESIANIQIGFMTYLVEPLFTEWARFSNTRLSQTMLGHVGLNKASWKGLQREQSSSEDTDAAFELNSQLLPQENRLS
Sequence of other members of the PDE family (Homo sapiens, UniProt Q14432) (Q14432 whole entry): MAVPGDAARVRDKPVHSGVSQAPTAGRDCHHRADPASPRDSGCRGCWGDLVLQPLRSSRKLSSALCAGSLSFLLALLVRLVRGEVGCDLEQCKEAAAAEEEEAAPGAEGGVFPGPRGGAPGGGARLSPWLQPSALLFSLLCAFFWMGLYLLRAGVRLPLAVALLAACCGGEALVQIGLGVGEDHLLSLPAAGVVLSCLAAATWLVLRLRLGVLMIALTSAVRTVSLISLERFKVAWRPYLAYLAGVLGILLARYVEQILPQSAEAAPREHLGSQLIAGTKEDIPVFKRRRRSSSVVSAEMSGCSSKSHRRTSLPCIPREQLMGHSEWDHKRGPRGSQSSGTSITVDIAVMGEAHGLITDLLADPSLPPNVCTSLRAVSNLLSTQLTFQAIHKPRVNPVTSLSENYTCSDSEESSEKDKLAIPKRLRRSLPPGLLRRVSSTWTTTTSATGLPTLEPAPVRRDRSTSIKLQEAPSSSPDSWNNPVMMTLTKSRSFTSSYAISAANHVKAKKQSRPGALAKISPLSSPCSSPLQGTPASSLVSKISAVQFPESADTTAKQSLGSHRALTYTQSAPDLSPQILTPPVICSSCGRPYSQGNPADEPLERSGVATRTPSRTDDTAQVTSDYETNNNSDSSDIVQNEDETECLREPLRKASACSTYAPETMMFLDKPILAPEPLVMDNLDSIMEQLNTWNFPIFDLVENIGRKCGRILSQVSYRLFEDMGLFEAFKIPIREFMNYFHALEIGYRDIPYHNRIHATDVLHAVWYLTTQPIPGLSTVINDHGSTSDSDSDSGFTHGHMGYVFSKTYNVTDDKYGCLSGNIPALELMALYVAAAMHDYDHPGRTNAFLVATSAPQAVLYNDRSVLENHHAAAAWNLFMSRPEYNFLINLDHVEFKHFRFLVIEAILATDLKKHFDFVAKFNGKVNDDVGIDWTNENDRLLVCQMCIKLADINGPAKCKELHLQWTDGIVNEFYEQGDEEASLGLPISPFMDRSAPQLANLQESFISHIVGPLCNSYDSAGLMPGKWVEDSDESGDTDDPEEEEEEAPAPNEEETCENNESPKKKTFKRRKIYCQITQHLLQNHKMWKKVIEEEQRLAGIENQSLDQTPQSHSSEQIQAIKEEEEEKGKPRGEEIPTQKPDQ
Sequence of other members of the PDE family (Homo sapiens, UniProt Q9HCR9) (Q9HCR9 whole entry): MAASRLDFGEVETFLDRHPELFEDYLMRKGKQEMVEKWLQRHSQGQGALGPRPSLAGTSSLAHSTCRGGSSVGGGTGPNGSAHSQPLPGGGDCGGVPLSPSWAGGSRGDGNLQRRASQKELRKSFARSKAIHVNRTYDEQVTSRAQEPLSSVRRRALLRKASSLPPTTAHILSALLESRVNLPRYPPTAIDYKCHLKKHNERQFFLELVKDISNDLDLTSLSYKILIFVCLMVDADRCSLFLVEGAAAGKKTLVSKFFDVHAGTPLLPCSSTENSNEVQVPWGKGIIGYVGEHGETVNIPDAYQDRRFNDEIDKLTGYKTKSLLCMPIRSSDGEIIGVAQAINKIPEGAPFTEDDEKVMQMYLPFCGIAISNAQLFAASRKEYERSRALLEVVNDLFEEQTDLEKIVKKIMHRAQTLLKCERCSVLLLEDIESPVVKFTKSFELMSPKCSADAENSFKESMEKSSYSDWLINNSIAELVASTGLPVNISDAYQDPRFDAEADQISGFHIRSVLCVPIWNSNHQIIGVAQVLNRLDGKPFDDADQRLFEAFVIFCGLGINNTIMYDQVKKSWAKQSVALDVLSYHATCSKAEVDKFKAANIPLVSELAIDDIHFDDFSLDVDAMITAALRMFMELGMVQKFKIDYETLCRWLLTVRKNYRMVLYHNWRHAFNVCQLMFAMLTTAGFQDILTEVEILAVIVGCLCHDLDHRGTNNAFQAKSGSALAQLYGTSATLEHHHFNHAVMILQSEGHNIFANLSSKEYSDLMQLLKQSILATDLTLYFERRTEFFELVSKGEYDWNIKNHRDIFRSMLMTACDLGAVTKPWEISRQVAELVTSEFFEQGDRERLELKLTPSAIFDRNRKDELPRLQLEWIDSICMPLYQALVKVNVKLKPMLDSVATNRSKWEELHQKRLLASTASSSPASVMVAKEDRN
Sequence of PDE4D3 (Q08499 1-673 isoform Q08499-2): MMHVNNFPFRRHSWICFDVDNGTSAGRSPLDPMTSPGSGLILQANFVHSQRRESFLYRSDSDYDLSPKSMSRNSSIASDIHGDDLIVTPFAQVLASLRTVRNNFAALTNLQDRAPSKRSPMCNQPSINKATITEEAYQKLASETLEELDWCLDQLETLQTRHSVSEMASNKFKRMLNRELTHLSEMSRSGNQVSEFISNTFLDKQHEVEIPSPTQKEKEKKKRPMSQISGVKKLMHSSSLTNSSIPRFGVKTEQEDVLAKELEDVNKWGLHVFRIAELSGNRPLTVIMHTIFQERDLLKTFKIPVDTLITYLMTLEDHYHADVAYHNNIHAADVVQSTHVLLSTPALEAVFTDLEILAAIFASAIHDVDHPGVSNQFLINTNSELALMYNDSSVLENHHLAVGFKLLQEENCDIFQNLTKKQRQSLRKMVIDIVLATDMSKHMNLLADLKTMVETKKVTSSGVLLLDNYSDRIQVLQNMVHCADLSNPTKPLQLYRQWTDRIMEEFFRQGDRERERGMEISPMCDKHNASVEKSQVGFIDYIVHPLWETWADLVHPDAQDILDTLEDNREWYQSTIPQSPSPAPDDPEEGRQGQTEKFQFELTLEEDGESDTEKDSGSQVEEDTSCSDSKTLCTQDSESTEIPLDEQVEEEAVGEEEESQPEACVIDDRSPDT
Sequence of other members of the PDE family (Homo sapiens, UniProt O76083) (O76083 whole entry, canonical isoform): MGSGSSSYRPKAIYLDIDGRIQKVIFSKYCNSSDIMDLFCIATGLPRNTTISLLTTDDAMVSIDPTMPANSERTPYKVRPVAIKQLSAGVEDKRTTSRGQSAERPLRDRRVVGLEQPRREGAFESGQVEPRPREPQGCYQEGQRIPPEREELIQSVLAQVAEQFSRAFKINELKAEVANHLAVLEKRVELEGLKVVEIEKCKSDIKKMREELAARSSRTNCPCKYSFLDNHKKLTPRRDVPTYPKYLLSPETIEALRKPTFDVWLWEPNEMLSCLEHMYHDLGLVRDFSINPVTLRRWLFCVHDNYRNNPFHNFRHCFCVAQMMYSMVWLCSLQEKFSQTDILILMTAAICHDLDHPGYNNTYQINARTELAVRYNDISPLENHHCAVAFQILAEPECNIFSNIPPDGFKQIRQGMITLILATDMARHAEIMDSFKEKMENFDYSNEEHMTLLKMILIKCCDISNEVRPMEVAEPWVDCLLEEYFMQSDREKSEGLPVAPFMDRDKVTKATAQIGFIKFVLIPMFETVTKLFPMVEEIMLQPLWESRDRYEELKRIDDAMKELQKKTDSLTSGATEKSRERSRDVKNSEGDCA
Sequence of other members of the PDE family (Homo sapiens, UniProt O00408) (O00408 whole entry): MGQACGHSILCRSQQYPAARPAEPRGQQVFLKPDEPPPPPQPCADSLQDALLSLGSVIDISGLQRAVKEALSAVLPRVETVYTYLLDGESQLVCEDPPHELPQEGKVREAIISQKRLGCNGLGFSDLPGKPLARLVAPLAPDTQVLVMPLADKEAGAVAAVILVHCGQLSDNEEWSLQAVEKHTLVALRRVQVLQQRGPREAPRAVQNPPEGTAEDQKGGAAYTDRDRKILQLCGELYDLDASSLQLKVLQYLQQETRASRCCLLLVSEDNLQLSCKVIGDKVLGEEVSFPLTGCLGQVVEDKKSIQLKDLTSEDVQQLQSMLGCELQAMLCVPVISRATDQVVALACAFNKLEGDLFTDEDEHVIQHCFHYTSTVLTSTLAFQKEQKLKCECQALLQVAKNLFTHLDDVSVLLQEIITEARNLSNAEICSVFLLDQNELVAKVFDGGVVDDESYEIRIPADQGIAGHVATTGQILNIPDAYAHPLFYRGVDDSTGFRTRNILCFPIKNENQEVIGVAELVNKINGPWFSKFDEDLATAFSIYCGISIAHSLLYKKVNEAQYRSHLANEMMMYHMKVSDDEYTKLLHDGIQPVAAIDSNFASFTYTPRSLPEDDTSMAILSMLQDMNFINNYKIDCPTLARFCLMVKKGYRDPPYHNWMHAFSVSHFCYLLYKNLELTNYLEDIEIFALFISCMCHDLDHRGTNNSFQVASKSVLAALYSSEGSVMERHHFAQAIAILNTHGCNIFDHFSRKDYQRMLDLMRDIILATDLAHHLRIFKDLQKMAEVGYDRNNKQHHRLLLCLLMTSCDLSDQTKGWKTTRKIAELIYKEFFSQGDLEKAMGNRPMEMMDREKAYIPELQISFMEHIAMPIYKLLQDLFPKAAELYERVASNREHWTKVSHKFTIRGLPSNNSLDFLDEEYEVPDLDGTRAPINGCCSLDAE

Row | IC50 [1] [µM] | IC50 [2] [µM] | IC50 [3] [µM] | IC50 [4] [µM] | IC50 [5] [µM] | IC50 [6] [µM] | IC50 [8] [µM] | ED50 [9] [mg/kg] | IC50 [10, 11] [µM] | IC50 [10, 12] [µM] | receptor occupancy at 10 mg/kg [9] [%] | % occupancy at the highest dose tested ([9]; dose response sc, data between brackets) [%] | Structure (SMILES) | ED50 [7] [mg/kg]
1 | > 10 | > 10 | > 10 | > 10 | > 10 | 7.94 | > 10 | 2 | 0.0263 | 0.0263 |  |  | COC(C)(C)Cc1ccc(-c2c(C)nc3c(N4CCOCC4)ccnn23)cn1 [compound 3, 3-[6-(2-methoxy-2-methylpropyl)-3-pyridinyl]-2-methyl-8-(4-morpholinyl)-imidazo[1,2-b]pyridazine] | 0.8
2 | > 10 | > 10 | 3.8 | 3.55 | > 10 | 1.17 | 3.8 |  | 0.0676 | 0.0676 | 22 |  | COCCn1cc(-c2c(C)nc3c(-c4ccncc4)cc(Cl)nn23)cn1 [compound 147, 6-chloro-3-[1-(2-methoxyethyl)-1H-pyrazol-4-yl]-2-methyl-8-(4-pyridinyl)-imidazo[1,2-b]pyridazine] | 5
3 | > 10 | 8.51 | 4.47 | > 10 | > 10 | 1.26 | 2.09 | > 10 | 0.0832 | 0.0832 |  | 42 | COCCn1cc(-c2c(C)nc3c(N4CCOCC4)cc(C4CC4)nn23)cn1 [compound 125, 6-cyclopropyl-3-[1-(2-methoxyethyl)-1H-pyrazol-4-yl]-2-methyl-8-(4-morpholinyl)-imidazo[1,2-b]pyridazine] | ≥ 2.5
4 | > 10 | 4.37 | 1.91 | 2.88 | 3.16 | 1.23 | 2.57 |  | 0.0251 | 0.0251 | 66 |  | CC(C)Cn1cc(-c2c(C3CC3)nc3c(-c4ccncc4)ccnn23)cn1 [compound 148, 2-cyclopropyl-3-[1-(2-methylpropyl)-1H-pyrazol-4-yl]-8-(4-pyridinyl)-imidazo[1,2-b]pyridazine] | 5
5 | > 10 | 8.71 | 5.37 | 5.37 | 6.92 | 1.95 | 7.41 | 3 | 0.0224 | 0.0224 |  |  | Cc1nc2c(-c3ccncc3)ccnn2c1-c1cnn(CC(C)C)c1 [compound 124, 2-methyl-3-[1-(2-methylpropyl)-1H-pyrazol-4-yl]-8-(4-pyridinyl)-imidazo[1,2-b]pyridazine] | 1.2
6 | > 10 | > 10 | > 10 | > 10 | > 10 | > 10 | > 10 |  | 0.107 | 0.107 | 57 |  | Cc1nc2c(N3CCOCC3)ccnn2c1-c1ccc(N2CCOCC2)nc1 [compound 19, 2-methyl-8-(4-morpholinyl)-3-[6-(4-morpholinyl)-3-pyridinyl]-imidazo[1,2-b]pyridazine] | 5
7 | > 10 | > 10 | > 10 | > 10 | 7.41 | > 10 | > 10 |  | 0.038 | 0.038 | 67 |  | Cc1nc2c(N3CCOCC3)ccnn2c1-c1cnn(CC(C)C)c1 [compound 35, 2-methyl-3-[1-(2-methylpropyl)-1H-pyrazol-4-yl]-8-(4-morpholinyl)-imidazo[1,2-b]pyridazine] | 5
8 | > 100 | 53.7 | 39.8 | 45.7 | 11 | 6.03 | 30.9 | 2.2 | 0.0501 | 0.0501 | 67 |  | COC(C)(C)Cn1cc(-c2c(C)nc3c(N4CCOCC4)ccnn23)cn1 [compound 37, 3-[1-(2-methoxy-2-methylpropyl)-1H-pyrazol-4-yl]-2-methyl-8-(4-morpholinyl)-imidazo[1,2-b]pyridazine] | 1.5
